According to patent publication US20060210491A1, “Flavoured mouth wash composition” (priority 2003, published 2006):
≈ marks a conversion by molar mass, not a printed value. Read-outs that look alike come from different tables or passages of the source.

How the values were obtained:
[1] = tested on: protease activity (arg-gingipain) of Porphyromonas gingivalis; test: Protease enzyme assay (BAPNA substrate), synergy of flavour material with antimicrobial agent; type: biochemical, Porphyromonas gingivalis W50; conditions: compared with flavour material alone; for Classes of Synergy, increase in inhibition; Antimicrobial Agent Triclosan: flavour material 2500 ppm and 5000 ppm plus sub-MIC triclosan; for Classes of Synergy, increase in inhibition; Antimicrobial Agent Zinc Sulphate: flavour material 2500 ppm and 5000 ppm plus sub-MIC zinc sulphate
Procedure: The following assay was used to investigate the inhibition of protease activity (arg-gingipain) of the micro-organism Porphyromonas gingivalis (implicated in gum disease) by a flavour material or mixture of flavour materials.
Fresh buffer was prepared immediately before beginning the assay in the following manner: 3.029 g of Tris Base (Sigma, Poole, UK), 394 mg of L-cysteine hydrochloride (Sigma, Poole, UK) and 367.5 mg of calcium chloride dihydrate (Sigma, Poole, UK) were dissolved in 150 ml deionised water. In order to allow for pH differences resulting from any variation in ambient temperature, the temperature of the buffer was taken. The pH of TRIS buffers varies with temperature i.e. Δ pH=−0.031/° C. This assay should be carried out at a temperature of 30° C., with the buffer having a pH of 8.0. Thus, if the measured temperature of the buffer is, for example, 22° C. (room temperature) the pH should be adjusted to 8.24 with 2M hydrochloric acid, in order to give the desired conditions i.e. pH=8.0 at 30° C. After adjusting the pH, the buffer was made up to 200 ml with deionised water and incubated in a water bath at 30° C. for approximately one hour to reach temperature equilibrium before commencing the assay.
The enzyme substrate BAPNA (DL-α-benzoyl-DL-arginyl-p-nitro-anilide) (Sigma) is the synthetic substrate for the protease enzyme produced by the bacterium Porphyromonas gingivalis. The substrate is degraded by enzymes which show specificity for cleaving adjacent to arginine residues. This cleavage yields a yellow nitro-aniline product, which can be readily detected spectrophotometrically at 405 nm. 10.87 mg of the BAPNA substrate was added to 0.5 ml of dimethylsulphoxide (DMSO) and thoroughly dissolved. 9.5 ml of deionised water was then added. The resulting solution was then mixed by vortex and incubated at 30° C. in a water bath for about one hour before commencing the assay to allow temperature equilibration.
Porphyromonas gingivalis W50 ATCC 53978 (American Type Culture Collection (ATCC), P.O. Box 1549, Manassas, Va. 20108, USA) (may also be obtained from Prof. Philip Marsh, Centre for Applied Microbiology and Research, Salisbury, Wiltshire, SP4 OJG, UK) was sub-cultured from frozen stock cultures onto Schaedler Anaerobic Agar (Oxoid, Basingstoke, UK), and supplemented with 5% v/v horse blood (E&O Laboratories, Bonnybridge, Scotland, FK4 2HH). The plates were incubated at 37° C. in an anaerobic cabinet (Don Whitley Scientific, Shipley, UK) for 3-5 days. Single colonies grown on these plates were then inoculated into 250 ml Schaedler Anaerobic Broth (SAB) contained in bottles with cotton wool stoppers. The broths were then incubated in an anaerobic cabinet and allowed to grow for 3-5 days. This generally yielded a culture with an absorbance at 540 nm (A540) between 0.2 and 0.4.
Into 1.5 ml disposable plastic cuvettes was added 0.7 ml of assay buffer, followed by 0.2 ml of BAPNA solution and 0.1 ml of bacterial culture. The cuvettes were capped and mixed, then placed in a Pye Unicam 8620 Spectrophotometer (Pye Unicam, Cambridge, UK). The increase in absorbance at 405 nm […] was recorded over a period of 3 minutes.
The percentage inhibition of protease by a given flavour/flavour material was determined by the formula: [formula]
The synergy between flavour/flavour material and an antimicrobial agent against the protease activity of Porphyromonas gingivalis was then determined in the following manner. Firstly, the MIC value of the antimicrobial agent required to cause any inhibition of protease activity was determined using the method generally described in Example 1 for the determination of the MIC value of triclosan. […] The dilution immediately lower than the MIC value was selected as the sub-IC concentration of antimicrobial agent. All flavour materials were tested at 2500 ppm and 5000 ppm.
The percentage inhibition of protease by the flavour material and antimicrobial agent was determined as described above.

Streptococcus mutans R9 = test: Minimum inhibitory concentration (MIC), microtitre broth dilution; type: cell-based
Procedure: The minimum inhibitory concentration of an antimicrobial agent (triclosan), and a flavour material or mixture of flavour materials (flavour), was determined by the following method.
A culture of the test strain Streptococcus mutans R9, deposited under the Budapest Treaty with National Collections of Industrial, Food and Marine Bacteria Limited, 23 St Machar Drive, Aberdeen, AB24 3RY, Scotland, UK on 22nd Jan. 2004 and given accession number NCIMB 41209) (may also be obtained from Prof. Philip Marsh, Centre for Applied Microbiology and Research, Salisbury, Wiltshire, SP4 OJG, UK) was grown in 250 ml of PM broth (containing: peptone, 2% w/v; tryptone, 1% w/v; yeast extract, 1% w/v; KCl, 0.25% w/v; of approximately pH 7), anaerobically at 37° C. for 48 hours. The absorbance of the culture at 540 nm (A540) was measured and adjusted if necessary to between 0.2-0.3 by diluting with fresh (i.e. sterile) PM broth. The culture was then diluted in Schaedler Anaerobic Broth (SAB) (Oxoid, Basingstoke, UK) in a ratio of 1 part culture to 25 parts broth to give a stock inoculum culture.
Determination of the MIC of Triclosan Against S. mutans
Triclosan powder was dissolved in AR-grade ethanol, to a concentration of 32,000 ppm (3.2% w/v). This was diluted in Schaedler Anaerobic Broth (SAB) to yield two stock triclosan solutions of concentrations: 320 ppm (0.032% w/v) and 64 ppm (0.0064% w/v).
200 μl of the 320 ppm triclosan stock solution was then added to the first and seventh well of row A on a standard 96-well microtitre plate. All remaining wells in this row were filled with 100% of sterile SAB. The contents of well 1 and the contents of well 7 were independently mixed by repeatedly sucking the contents up and down a pipette tip. 100 μl from well 1 was transferred to the second well of row A and 100 μl from well 7 was transferred to the eighth well of row A. This process was repeated along the row until the sixth and twelfth wells contained 200 μl. After mixing, 100 μl from wells 6 and 12 was discarded to waste. Each successive well in row A therefore contained a two-fold dilution of triclosan compared with the preceding well (i.e. 80 ppm in wells 2 and 8; 40 ppm in wells 3 and 9, etc.), resulting in wells 6 and 12 having a concentration of 5 ppm. A similar series of dilutions was repeated starting with the 64 ppm triclosan stock solution into row B on a microtitre plate. This gave a range of triclosan concentrations from 32 ppm to 1 ppm following the dilution process described. Finally, 100 μl of the pre-diluted stock inoculum culture was added to all wells, thus giving a final volume of 200 μl in each well. Wells 1 and 7 of row A therefore contained a final concentration of 160 ppm triclosan.
A blank plate was prepared for each of the two samples by repeating the process described above, except that 100 μl of SAB was added instead of bacterial culture. This plate was used as the control plate against which the test plate(s) could be read.
Test and control plates were sealed using autoclave tape and incubated for 48 hours anaerobically at 37° C.
A microtitre plate reader (Model MRX, Dynatech Laboratories) was preset to gently agitate the plates and mix the contents. The absorbance at 540 nm “A540” was used as a measure of turbidity resulting from bacterial growth. The control, un-inoculated plate for each set of samples was read first, and the plate reader then programmed to use the control readings to blank all other plate readings for the inoculated plates for the same set of test materials (i.e. removing turbidity and possible colour changes during incubation which are due to chemical interactions). Thus, the corrected readings generated were absorbances resulting from turbidity from bacterial growth. The MIC was taken as the lowest concentration of triclosan required to inhibit growth so that the change in absorbance during the incubation period was <0.2 A540. […]

S. mutans = test: Potential synergy of triclosan with flavour materials (growth at sub-MIC concentrations); type: cell-based, Streptococcus mutans; conditions: for Synergy Shown: flavour material with triclosan against S. mutans; for 50% MIC without triclosan: growth of S. mutans with flavour material at 50% of its MIC alone; for 50% MIC and 8 ppm triclosan: growth of S. mutans with flavour material at 50% of its MIC plus 8 ppm triclosan
Procedure: This example describes a method for determining the potential synergy of triclosan with flavour materials against S. mutans.
A microtitre method using the procedure described below was employed.
Flavour materials were assessed at a final concentration of 50% of the MIC value determined according to Example 1 above, in combination with triclosan at 8 ppm, i.e. about 50% of the MIC value also determined as described in Example 1. Inhibition of growth by this combination of sub-MIC concentrations of flavour material and triclosan was taken to indicate antimicrobial synergy between the flavour material and triclosan.
100 μl of stock solution was added to the appropriate well of a standard 96-well microtitre plate. An equivalent volume of bacterial stock inoculum solution (prepared as in Example 1) was added giving the desired dilution in each well. A blank plate was prepared using the same process except that 100 μl of SAB was added instead of bacterial culture. The protocol for incubation, reading of results and interpretation was as described in Example 1.

[2] = flavour material against S. mutans R9, 48 hours anaerobically at 37° C., read-out: MIC (ppm)

Compound	Classes of Synergy, increase in inhibition; Antimicrobial Agent Triclosan [1]	MIC (Streptococcus mutans R9; R9, 48 h, read-out: MIC for triclosan against S. mutans R9)	MIC (Streptococcus mutans R9; R9, 48 h)	Synergy Shown (S. mutans)	50% MIC without triclosan (S. mutans)	50% MIC and 8 ppm triclosan (S. mutans)	Classes of Synergy, increase in inhibition; Antimicrobial Agent Zinc Sulphate [1]	MIC (Streptococcus mutans R9; [2])
CCCC(=O)OCc1ccccc1 [Benzyl Butyrate, benzyl butyrate]	− (− = <15% increase in inhibition)							
Oc1cc(Cl)ccc1Oc1ccc(Cl)cc1Cl [triclosan, 2′,4,4′-trichloro-2-hydroxy-diphenyl ether, reference compound]		10 to 16 µg/mL (≈ 0.0345 to 0.0553 mM)						
O=C/C=C/c1ccccc1 [Cinnamic Aldehyde Extra, cinnamic aldehyde]			625 µg/mL (≈ 4.73 mM)	Yes	+	−		
O=C(OCc1ccccc1)c1ccccc1 [Benzyl benzoate, benzyl benzoate]	+ (+ = >15% increase in inhibition)						− (− = <15% increase in inhibition)	
CCCCCCCCCCO [Alcohol C10, decanol]	+ (+ = >15% increase in inhibition)			Yes	+	−	+ (+ = >15% increase in inhibition)	5000 µg/mL (≈ 31.6 mM)
CCCCCCCCC=O [Aldehyde C9, nonanal]				Yes	+	−		5000 µg/mL (≈ 35.2 mM)
C/C=C/c1ccc(OC)cc1 [Anethole Synthetic, anethole synthetic]	− (− = <15% increase in inhibition)						− (− = <15% increase in inhibition)	
CCCCCCCCCC=O [Aldehyde C10, decanal]				Yes	+	−		5000 µg/mL (≈ 32 mM)
CC/C=C\CCO [Cis-3-hexenol, cis-3-hexenol]	− (− = <15% increase in inhibition)						+ (+ = >15% increase in inhibition)	
COC(=O)C=Cc1ccccc1 [Methyl Cinnamate, methyl cinnamate]	+ (+ = >15% increase in inhibition)						− (− = <15% increase in inhibition)	
CCCCCCCCCO [Alcohol C9, nonanol]	− (− = <15% increase in inhibition)			Yes	+	−	+ (+ = >15% increase in inhibition)	5000 µg/mL (≈ 34.7 mM)
